# In PMC4912613, “A broad analysis of resistance development in the malaria parasite” (Nature Communications, 2016):
# Marks after values point to notes of the source that are not given here.
# Key:
# [1] = test system: Stage 5 gametocytes from P. falciparum NF54; assay: Late-stage (stage V) gametocyte survival assay, MitoTracker; format: cell-based, Plasmodium falciparum; details: for EC50: Plasmodium falciparum, P. falciparum NF54, 72 h, read-out: Stage 5 Gametocyte EC50; for EC50 fold shift compared to asexual stage: Stage 5 Gametocyte EC50: gametocyte EC50 / 3D7 EC50
# Protocol: The second assay was a late-stage (stage V) gametocyte survival assay, which predicts transmission-blocking activity. […] Positive and negative control compounds included puromycin (0.61±0.11 μM) and atovaquone (> 12.50 μM), respectively.
# To test sexual-stage activity, compounds were tested against late-stage gametocytes using a MitoTracker fluorescent-based assay. Specifically, synchronized stage V gametocytes were incubated with compound for 72 h. MitoTracker Red CMXRos (Life Technologies) was added to each well (final concentration: 500 nM) together with saponin to lyse the RBCs. Each plate was then imaged with an Operetta High Content Imaging System (Perkin Elmer) for fluorescence (590–640 nm). Varying levels of compound concentration were used (1.25 μM or 12.5 μM) due to the stock concentration supplied.
# The gametocytocidal activity was measured using high-content image analysis software (Harmony, Perkin Elmer). The readout was based on number of metabolically active gametocytes per well.
# [2] = test system: ProRS (prolyl t-RNA synthetase L482H, parent Dd2); assay: Cross-resistance EC50 assay, ProRS; format: cell-based; details: Plasmodium falciparum, SYBR green 72 hour assay, synchronized parasites, 384-well format
# Excerpt: (§1) To evaluate potential overlapping activity against known antimalarial drug targets, we performed dose-response studies with each compound against our assembled set of drug-resistant lines and their corresponding parents, in an asexual blood stage proliferation assay (Table 1). Comparisons were made to the drug-sensitive strain 3D7 when a parent was unavailable (TM90C2A, W2 and Dd2). As laboratories conducted EC50 assays with different strains and protocols, all comparisons were made between assays from the same laboratory and under the same assay conditions. Compounds displaying >5-fold EC50 shifts relative to the parent or sensitive strain were flagged as having potentially non-novel targets. Average fold shifts per strain ranged from 0.82 to 2.34, with a median of 1.23 indicating there was not common resistance to any one resistant clone. No resistance patterns were observed when classifying the compounds based on chemical structure, but this was not surprising given the diversity of compounds chosen. On the other hand, given that these confirmed compounds were derived from larger unconfirmed hit lists to which some filtration criteria may have been applied (for example, elimination of obvious dihydrofolate reductase inhibitors[32]), some[10][11][12][13] pre-existing bias may exist in the set. […]
# (§2) Alternatively, a SYBR Green-based proliferation approach was used for the 72-h assay, as previously described. Briefly, a culture of either synchronized or asynchronous parasitized RBCs (0.3% parasitemia and 4% haematocrit) in screening medium (identical to supplemented medium above except no serum was added) was exposed to serial drug dilutions. Plates were incubated at 37 °C and gassed with 93% N2, 4% CO2 and 3% O2 for 72 h. Following incubation, 10 × SYBR Green I (Invitrogen; supplied in 10,000 × concentration) in lysis buffer ([…], 5 mM EDTA, 0.16% Saponin wt per vol and 1.6% Triton X vol per vol) was added to the wells and the plates were incubated overnight at room temperature before plate reading. EC50 assays were repeated three times, taking the average EC50 value from each assay set, and removing any outliers using a single iteration of Grubbs' test, eliminating values with z-scores above the critical z-value (α=0.05). The raw EC50 values for synchronized parasites assayed in a 384-well format are listed in Supplementary Data 4. The raw EC50 values for asynchronous parasites assayed in a 96 or 1536-well format are listed in Supplementary Data 5.
# (§3) EC50 values for each strain were compared with those of the corresponding parent strain to determine fold-shift changes and identify resistance. To minimize the cause variance between assays, all comparisons were conducted between strains assayed under identical conditions. A one-way ANOVA followed by a Dunnet's post-test was conducted in GraphPad Prism to identify significant changes between the parent and resistant strain.
# [3] = test system: ATQ-R5 (cytb F267V, parent 3D7); assay: Cross-resistance EC50 assay, ATQ-R5; format: cell-based, Plasmodium falciparum; details: Plasmodium falciparum, 3D7; SYBR green 72 hour assay; asynchronized parasites; 96-well or 1536-well format; ATQ-R5
# Excerpt: as §1, §2, §3
# [4] = test system: P. falciparum 3D7, Dd2, Dd2Δexo; assay: In vitro evolution of compound-resistant lines (selection); format: cell-based, Plasmodium falciparum; details: for Time Length to Obtain Mutants: in vitro selection; for # of Resistant Strains Generated: resistant cultures out of three independent cultures; for EC50 fold shifts observed: selected parasites vs selection parent
# Excerpt: While we found an overall lack of pre-existing resistance, analysing the onset of resistance was critical, as compounds resulting in rapid resistance are not ideal for clinical development. We therefore sought to create drug-resistant parasites using a variety of different selection methods. We implemented either a high-dose method or a ramp-up/pulse method for our in vitro selections. Two of the 50 compounds—MMV028895 and MMV665824—were removed from the selection study during experimentation. […] Out of the remaining 48 compounds, resistant parasites were obtained for 23 (Supplementary Data 1). As each selection was performed in triplicate with three independent cultures, we succeeded in generating a total of 66 resistant cultures. Parasites resistant to MMV026596 were not obtained despite 100 days of selection, but the cultures acquired hypersensitivity to mefloquine with a 10-fold reduction in EC50 compared with its parental line, 3D7. For the remaining 24 compounds, acquisition of resistant parasites was unsuccessful despite numerous attempts over an extensive period of time.
# Based on the compound speed of action and lab specialty, selections were conducted using a high-pressure intermittent selection method, a step-wise selection method, or a constant selection method. For high-pressure selections, ∼1–2 × 10^9 parasites were treated at a concentration of 3–10 × EC50 until parasites could not be seen by microscopy (4–10 days). Following treatment, compound pressure was removed and cultures were allowed to recover. Once healthy parasites were seen and parasitemia reached ∼2%, compound pressure was reinstated. For step-wise selections, ∼1 × 10^8 parasites were treated at a starting concentration resulting in a reduced growth rate of 50%. Cultures were examined daily by microscopy, increasing compound concentration in increments of 5–10% as needed to maintain a 50% reduced growth rate. Selections were carried out until cultures achieved a reproducible EC50 fold shift of >3 × . Finally, constant selections were conducted in a similar manner to the high-pressure intermittent method with the exception that compound pressure was never removed. Following successful selection, cultures were cloned out using a limiting dilution method as previously described. Selections were terminated after 200 days if resistance could not be obtained.
Compound,EC50 [1] [nM],EC50 fold shift compared to asexual stage: Stage 5 Gametocyte EC50 [1],"EC50 ([2]; DD2, ProRS strain) [nM]",EC50 [3] [µM],Time Length to Obtain Mutants [4],# of Resistant Strains Generated [4],EC50 fold shifts observed [4],EC50 ([2]; strain ProRS (Dd2 parent)) [nM]
CN(C)CCCNCc1ccc(-c2ccc(Cl)c(Cl)c2)o1 [MMV673964],1130,1.86,315,0.108,LONG (> 125 days),0/3,no shift,–
COc1ccc2c3c([nH]c2c1)[C@H](CO)N(C(C)=O)CC31CCN(C(=O)Nc2ccccc2F)CC1 [MMV673482],–,–,94,0.025,SHORT (0-50 days),2/3,7-18x,–
CCCCCCCN(Cc1ccc(OC(C)(C)C(=O)OCC)cc1)C(=O)Nc1ccc(Cl)cc1OCC [MMV021735],> 11600,> 32,–,0.062,LONG (> 125 days),0/3,no shift,269
FC(F)(F)c1cccc(Nc2nc3ccccc3nc2Nc2cccc(C(F)(F)F)c2)c1 [MMV665794],836,–,–,0.381,SHORT (0-50 days),0/3,no shift,93
Cc1c(C)n(Cc2ccc(F)cc2)c2ccc(C(=O)NCc3ccco3)cc12 [MMV008149],> 1250,1.62,–,1.58,SHORT (0-50 days),3/3,–,67
COc1ccc(C(=O)C2CC2c2ccc(Cl)cc2)cc1 (centres unmarked) [MMV665924],> 1250,> 1.5,–,3.63,SHORT (0-50 days),3/3,3-5x,966
OC(CNC1CCCCC1)Cn1c2ccccc2c2ccccc21 (centres unmarked) [MMV009063],> 1250,> 1.5,–,0.652,LONG (> 125 days),3/3,1.9-3.4x,144
COc1cc2cc(C(=O)Nc3ccccc3)c(N)nc2cc1OC [MMV006767],> 12500,–,–,2.87,MODERATE (50-125 days),2/3*,2-4x,1730
CN(C)S(=O)(=O)c1cc(-c2ccc3nccc(-c4cccc(S(N)(=O)=O)c4)c3c2)cnc1N [MMV024038],317,1.39,–,0.878,SHORT (0-50 days),0/3,no shift,143
COCCNCC(O)Cn1c2ccc(Cl)cc2c2cc(Cl)ccc21 (centres unmarked) [MMV019017],> 1250,> 2.6,–,0.842,LONG (> 125 days),0/3,no shift,340
CCC(C)NCC(O)(c1ccc(Cl)cc1)c1ccc(Cl)cc1 (centres unmarked) [MMV665928],> 1250,> 2.5,–,0.074,SHORT (0-50 days),0/3,no shift,360
COc1ccc(NC(=O)N2CCCCN3[C@H](CN)[C@H](c4ccc(C#Cc5ccccc5)cc4)[C@@H]3C2)cc1 [BRD1095],259,6.48,17,0.002,SHORT (0-50 days),3/3,4-100x,–
CN(C)CCCN(C)C(=O)C1Cc2cc(-c3ccccc3)ccc2N1S(=O)(=O)c1ccccc1 (centres unmarked) [MMV028895],–,–,–,0.879,–,–,–,371
c1cncc(-c2cc(N3CCC(CN4CCOCC4)CC3)nc(-c3ccncc3)n2)c1 [MMV668399],> 12500,–,–,0.339,LONG (> 125 days),3/3,2-4x,–
Cc1nc2ccc3ccc(CNc4ccc(C(=O)CC(CCC(=O)O)C(=O)O)cc4)cc3c2c(=O)[nH]1.Cl (centres unmarked) [MMV027634],> 12500,> 543,–,0.13,SHORT (0-50 days),3/3,>15x,–
